Source: US20260184725A1, “CYCLIC 2-AMINOPYRIMIDINE COMPOUND AND PHARMACEUTICAL COMPOSITION AND USE THEREOF” (SHANGHAI INSTITUTE OF ORGANIC CHEMISTRY, CHINESE ACADEMY OF …, priority 2023, published 2026)

Tests used:
EGFR^WT = target: T1, EGFR^WT (Homo sapiens, UniProt P00533); assay: ELISA kinase activity inhibition, wild-type EGFR; type: biochemical; details: ATP 5 μM, read-out: The average IC50 value (nM) for inhibiting the activity of different tyrosine kinases, EGFR^WT
T1 construct: purchased Eurofins
T1 sequence (P00533 25-1210): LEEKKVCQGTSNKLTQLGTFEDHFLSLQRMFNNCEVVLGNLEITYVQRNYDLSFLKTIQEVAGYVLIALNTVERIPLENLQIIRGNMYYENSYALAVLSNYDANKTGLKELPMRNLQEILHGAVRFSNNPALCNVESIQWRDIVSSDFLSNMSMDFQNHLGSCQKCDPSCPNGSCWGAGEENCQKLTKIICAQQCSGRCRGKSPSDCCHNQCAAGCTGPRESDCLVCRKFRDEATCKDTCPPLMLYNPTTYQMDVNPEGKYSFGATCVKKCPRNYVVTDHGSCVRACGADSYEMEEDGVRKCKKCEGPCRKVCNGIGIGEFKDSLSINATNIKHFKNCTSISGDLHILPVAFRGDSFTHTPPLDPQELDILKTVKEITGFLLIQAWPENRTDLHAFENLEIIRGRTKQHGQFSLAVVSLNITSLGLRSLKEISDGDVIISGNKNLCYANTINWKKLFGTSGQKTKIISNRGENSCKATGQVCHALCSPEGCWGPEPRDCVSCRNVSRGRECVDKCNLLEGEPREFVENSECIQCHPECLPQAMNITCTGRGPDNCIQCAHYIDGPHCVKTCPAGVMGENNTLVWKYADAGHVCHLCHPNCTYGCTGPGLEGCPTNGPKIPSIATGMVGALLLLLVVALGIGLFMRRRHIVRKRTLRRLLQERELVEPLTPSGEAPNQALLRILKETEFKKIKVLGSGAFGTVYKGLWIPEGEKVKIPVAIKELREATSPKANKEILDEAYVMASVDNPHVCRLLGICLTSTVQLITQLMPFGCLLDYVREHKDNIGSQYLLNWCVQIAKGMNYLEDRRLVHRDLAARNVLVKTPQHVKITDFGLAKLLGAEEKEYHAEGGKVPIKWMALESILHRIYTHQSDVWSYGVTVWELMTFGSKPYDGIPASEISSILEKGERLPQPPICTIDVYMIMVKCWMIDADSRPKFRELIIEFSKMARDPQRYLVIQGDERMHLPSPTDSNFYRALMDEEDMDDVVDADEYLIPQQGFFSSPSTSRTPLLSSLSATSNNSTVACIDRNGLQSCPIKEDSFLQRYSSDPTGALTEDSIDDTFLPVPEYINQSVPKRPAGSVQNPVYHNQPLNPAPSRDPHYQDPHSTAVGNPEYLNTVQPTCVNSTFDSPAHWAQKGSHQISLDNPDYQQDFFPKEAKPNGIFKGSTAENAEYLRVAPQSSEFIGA
Method: (§1) EGFR (WT) is a wild-type epidermal growth factor receptor.
(§2) Enzyme-Linked Immunosorbent Assay (ELISA) was used to detect the inhibitory effect of compounds on kinase activity.
(§3) The main experimental steps were as follows: Enzyme reaction substrate Poly (Glu, Tyr)4:1 was diluted with potassium free PBS (10 mM sodium phosphate buffer, 150 mM NaCl, pH 7.2-7.4) to 20 μg/mL, and reacted at 37° C. for 12 hours to 16 hours to coat the enzyme-linked immunosorbent assay plate. ATP solution (final concentration 5 μM) diluted with reaction buffer (50 mM HEPES pH 7.4, 50 mM MgCl2, 0.5 mM MnCl2, 0.2 mM Na3VO4, 1 mM DTT) was added to each well, followed by the test compound or solvent control, then the kinase reaction was initiated and the plate was shaken at 37° C. for 1 hour. The plate was washed three times with T-PBS, then added antibody PY99. The plate was shaken at 37° C. for 0.5 hours. After washing the plate with T-PBS, added horseradish peroxidase-labeled IgG and shaken at 37° C. for 0.5 hours. After washing the plate again, added 2 mg/mL of OPD colorimetric solution and incubated at 25° C. in the dark for 1 minutes to 10 minutes. […] The IC50 values were obtained from the inhibition curve analysis.

EGFR^L858R/T790M/C797S = EGFR^L858R/T790M/C797S (Homo sapiens, UniProt P00533, C797S/L858R/T790M); assay: ELISA kinase activity inhibition, EGFR L858R/T790M/C797S; type: biochemical; details: ATP 5 μM, read-out: The average IC50 value (nM) for inhibiting the activity of different tyrosine kinases, EGFR^L858R/T790M/C797S
Method: as §2, §3

EGFR^19del/T790M/C797S = target: T2, EGFR^19del/T790M/C797S (Homo sapiens, UniProt P00533, T790M/C797S, form not given); assay: ELISA kinase activity inhibition, EGFR 19del/T790M/C797S; type: biochemical; details: ATP 5 μM, read-out: The average IC50 value (nM) for inhibiting the activity of different tyrosine kinases, EGFR^19del/T790M/C797S
T2 construct: fused on or other part: Probably a GST tag on the cytoplasmic fragment, as in the vendor's product
T2 sequence (P00533 with tags, fused parts or gaps DEL746-750/T790M/C797S, form open): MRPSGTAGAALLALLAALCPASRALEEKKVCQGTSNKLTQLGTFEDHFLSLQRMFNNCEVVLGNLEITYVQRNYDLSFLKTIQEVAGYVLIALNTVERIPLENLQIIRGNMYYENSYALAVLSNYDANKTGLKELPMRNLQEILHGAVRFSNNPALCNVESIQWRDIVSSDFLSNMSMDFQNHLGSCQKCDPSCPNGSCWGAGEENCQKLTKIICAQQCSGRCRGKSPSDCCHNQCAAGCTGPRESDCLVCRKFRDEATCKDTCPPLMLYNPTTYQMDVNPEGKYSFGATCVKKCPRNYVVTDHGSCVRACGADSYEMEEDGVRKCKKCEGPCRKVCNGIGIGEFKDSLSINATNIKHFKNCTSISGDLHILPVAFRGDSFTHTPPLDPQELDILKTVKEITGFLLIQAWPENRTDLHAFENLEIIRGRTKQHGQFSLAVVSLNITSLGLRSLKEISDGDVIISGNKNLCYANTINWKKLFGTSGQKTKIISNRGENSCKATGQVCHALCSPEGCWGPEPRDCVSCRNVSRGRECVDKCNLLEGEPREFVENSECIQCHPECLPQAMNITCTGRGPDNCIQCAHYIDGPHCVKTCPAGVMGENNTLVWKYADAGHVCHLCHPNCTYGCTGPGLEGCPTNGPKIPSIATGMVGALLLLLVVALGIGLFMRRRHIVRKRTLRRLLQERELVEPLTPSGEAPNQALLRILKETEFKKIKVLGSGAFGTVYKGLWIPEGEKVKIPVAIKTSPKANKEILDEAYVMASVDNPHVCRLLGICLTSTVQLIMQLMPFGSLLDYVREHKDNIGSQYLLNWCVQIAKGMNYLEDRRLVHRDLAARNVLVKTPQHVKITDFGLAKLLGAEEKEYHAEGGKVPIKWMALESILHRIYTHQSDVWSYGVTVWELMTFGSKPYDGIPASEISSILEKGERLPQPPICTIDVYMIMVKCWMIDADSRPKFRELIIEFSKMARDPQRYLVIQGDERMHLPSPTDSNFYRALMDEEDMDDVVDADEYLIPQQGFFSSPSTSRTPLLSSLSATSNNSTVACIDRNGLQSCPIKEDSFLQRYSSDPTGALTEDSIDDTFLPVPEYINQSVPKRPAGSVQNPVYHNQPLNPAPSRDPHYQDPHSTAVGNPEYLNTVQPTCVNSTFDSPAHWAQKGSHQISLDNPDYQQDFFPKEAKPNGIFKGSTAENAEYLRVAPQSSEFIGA
Method: as §1, §2, §3

BaF3 parent cell = assay: CCK-8 cell proliferation, BaF3 parent cell; type: cell-based; details: Mus musculus, BaF3; CCK-8, 72 hours; read-out: Average value of IC50 of inhibition against cells growth, BaF3 parent cell
Excerpt: (§4) Ba/F3 cells were obtained from Deutsche Sammlung von Mikroorganismen und Zellkulturen GmbH (DSMZ). Ba/F3 cells stably expressing EGFR19del/T790M/C797S or EGFR L858R/T790M/C797S were generated by infecting parental cells with corresponding retroviruses. PC-9-OR was a tumor cell model obtained by simultaneously knocking in T790M and C797S mutations into 19del-activating mutation-dependent PC-9 tumor cells using CRISPR technology. This model, which proliferated dependent on EGFR19del/T790M/C797S resistance mutation, was used to evaluate the inhibitory activity of compounds against EGFR19del/T790M/C797S resistance mutants (Cancer Science. 2022; 113:709-720). All cells used in the study were verified by short tandem repeat (STR) analysis conducted by Genesky.
(§5) Tumor cell viability was assessed using a CCK-8 cell counting kit (A311-01/02, Vazyme, Nanjing, China). Cells were seeded at a density of 3000 cells per well into 96-well plates and cultured overnight. Subsequently, the cells were treated with compounds of different concentrations and incubated for 72 hours. After 72 hours, 10 μL of CCK-8 solution was added to each well. The plates were then returned to the incubator and incubated at 37° C. for 2 hours. The absorbance was measured at 450 nm using a microplate reader. A calibration curve was constructed using data obtained from wells containing known numbers of viable cells.

[1] = target: BaF3-EGFR (19del/T790M/C797S) (Homo sapiens, UniProt P00533, T790M/C797S, cells depend on it, form not given); assay: CCK-8 cell proliferation, BaF3-EGFR(19del/T790M/C797S); type: cell-based; details: CCK-8, 72 hours; read-out: Average value of IC50 of inhibition against EGFR-mutant cells growth, BaF3-EGFR (19del/T790M/C797S)
Chain of BaF3-EGFR (19del/T790M/C797S) (P00533 with tags, fused parts or gaps DEL746-750/T790M/C797S, form open): as above
Method: (§6) Ba/F3 cells were obtained from Deutsche Sammlung von Mikroorganismen und Zellkulturen GmbH (DSMZ). […] All cells used in the study were verified by short tandem repeat (STR) analysis conducted by Genesky.
as §5

[2] = target: BaF3-EGFR (L858R/T790M/C797S) (Homo sapiens, UniProt P00533, T790M/C797S/L858R, cells depend on it); assay: CCK-8 cell proliferation, BaF3-EGFR(L858R/T790M/C797S); type: cell-based; details: CCK-8, 72 hours; read-out: Average value of IC50 of inhibition against EGFR-mutant cells growth, BaF3-EGFR (L858R/T790M/C797S)
Chain of BaF3-EGFR (L858R/T790M/C797S) (P00533 whole entry T790M/C797S/L858R): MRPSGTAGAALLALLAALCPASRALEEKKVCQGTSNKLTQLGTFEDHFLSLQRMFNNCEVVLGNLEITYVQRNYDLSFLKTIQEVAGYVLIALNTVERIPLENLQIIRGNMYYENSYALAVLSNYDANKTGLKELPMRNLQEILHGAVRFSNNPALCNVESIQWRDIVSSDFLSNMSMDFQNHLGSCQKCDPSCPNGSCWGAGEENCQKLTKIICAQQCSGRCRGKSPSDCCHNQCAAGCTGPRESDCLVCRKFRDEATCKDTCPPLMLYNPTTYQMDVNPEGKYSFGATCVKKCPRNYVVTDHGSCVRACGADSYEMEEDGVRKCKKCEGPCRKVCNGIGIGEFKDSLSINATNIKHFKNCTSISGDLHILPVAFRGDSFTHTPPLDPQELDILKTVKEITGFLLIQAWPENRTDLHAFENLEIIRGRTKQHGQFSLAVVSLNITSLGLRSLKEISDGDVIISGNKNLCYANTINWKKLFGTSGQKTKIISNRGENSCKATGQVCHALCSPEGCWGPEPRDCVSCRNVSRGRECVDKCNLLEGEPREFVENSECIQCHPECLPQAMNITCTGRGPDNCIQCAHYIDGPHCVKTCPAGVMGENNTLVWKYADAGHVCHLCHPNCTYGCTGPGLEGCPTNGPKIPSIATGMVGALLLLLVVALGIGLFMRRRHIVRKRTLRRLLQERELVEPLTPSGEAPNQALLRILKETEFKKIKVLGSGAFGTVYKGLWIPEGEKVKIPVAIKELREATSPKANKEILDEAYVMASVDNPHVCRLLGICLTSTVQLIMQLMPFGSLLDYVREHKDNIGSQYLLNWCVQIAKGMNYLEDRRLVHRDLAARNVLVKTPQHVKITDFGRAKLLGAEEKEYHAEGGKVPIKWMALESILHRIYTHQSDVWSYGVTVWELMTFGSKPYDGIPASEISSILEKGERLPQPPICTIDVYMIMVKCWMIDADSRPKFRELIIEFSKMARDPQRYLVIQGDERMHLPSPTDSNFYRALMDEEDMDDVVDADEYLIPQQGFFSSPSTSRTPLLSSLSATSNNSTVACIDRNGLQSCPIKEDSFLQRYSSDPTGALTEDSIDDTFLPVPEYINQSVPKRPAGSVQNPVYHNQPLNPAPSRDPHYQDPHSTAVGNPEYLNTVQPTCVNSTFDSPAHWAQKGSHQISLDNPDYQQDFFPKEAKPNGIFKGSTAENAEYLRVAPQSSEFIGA
Method: as §6, §5

[3] = test system: PC-9-OR (19del/T790M/C797S); assay: CCK-8 cell proliferation, PC-9-OR; type: cell-based; details: PC9-OR; CCK-8, 72 hours; read-out: Average value of IC50 of inhibition against EGFR-mutant cells growth, PC-9-OR (19del/T790M/C797S)
Excerpt: as §4, §5

[4] = Pharmacokinetic parameters in rats; type: in vivo; details: male, Sprague-Dawley, plasma, rat
Method: Sprague-Dawley rats (males, 3 per group), weighing 180 g to 220 g, were administered test compounds intravenously and orally at doses of 1 mg/kg and 5 mg/kg, respectively. The compounds were dissolved in a mixed solvent (5% DMSO+10% Solutol+85% PBS) for intravenous injection. 0.5% CMC-Na solution (800 cps to 1200 cps) was used as a suspension agent for oral administration. At designated time points, 0.2 mL of blood samples were collected via the jugular vein and placed into tubes containing K2-EDTA, stored on ice, and then centrifuged. Sampling intervals for the injection group were 0.083, 0.25, 0.5, 1, 2, 4, 8, and 24 hours, while for the oral group, sampling intervals were 0.25, 0.5, 1, 2, 4, 6, 8, and 24 hours. The blood samples were centrifuged at 6800 g for 6 minutes at 2° C. to 8° C. within 1 hour after collection and stored frozen at approximately −80° C. Subsequently, 200 μL of MeOH was used to precipitate 20 μL of plasma samples containing 100 ng/mL IS. The mixture was vortexed for 1 minute and then centrifuged at 18000 g for 7 minutes. 200 μL of the supernatant was transferred to a 96-well plate, and 1 μL of the supernatant sample was injected for LC-MS/MS analysis. Finally, Phoenix WinNonlin7.0 software was used to calculate the pharmacokinetic (PK) parameters.

| IC50 (EGFR^WT) [nM] | IC50 (EGFR^L858R/T790M/C797S) [nM] | IC50 (EGFR^19del/T790M/C797S) [nM] | IC50 (BaF3 parent cell) [nM] | GI50 [1] [nM] | GI50 [2] [nM] | IC50 [3] [nM] | Cmax ([4]; IV 1 mg/kg) [ng/mL] | clearance ([4]; IV 1 mg/kg) [mL/min/kg] | half-life ([4]; IV 1 mg/kg) [h] | Cmax ([4]; PO 5 mg/kg) [ng/mL] | half-life ([4]; PO 5 mg/kg) [h] | bioavailability ([4]; PO 5 mg/kg, read-out: F (oral bioavailability)) [%] | Compound |
| --- | --- | --- | --- | --- | --- | --- | --- | --- | --- | --- | --- | --- | --- |
| 632 | 2 | 1.7 | 1820 | 189 | 301 | 269 | 1570 ± 220 | 9.2 ± 2.1 | 7.1 ± 0.95 | 330 ± 56.5 | 8.13 ± 0.08 | 39.6 ± 9 | CCS(=O)(=O)n1cc2c3ccc(cc31)OCCCn1cc(cn1)-c1cc(c(OC)cc1N1CCOCC1)Nc1nccc-2n1 [HC9591, (Z)-1^1-Ethylsulfonyl-4^6-methoxy-4^4-morpholin-1^1H,5^1H-9-oxa-3-aza-1 (3,6)-indole-2(4,2)-pyrimidine-5(4,1) pyrazole-4(1,3)-benzenacyclononaphane] |
| 112 | 2.2 | 1.7 | > 10000 | 1220 | 735 | 925 | – | – | – | – | – | – | CCS(=O)(=O)n1cc2c3ccc(cc31)OCCCn1cc(cn1)-c1cc(c(OC)cc1N1CCC(N3CCN(C)CC3)CC1)Nc1nccc-2n1 [HC9594, (Z)-1^1-ethylsulfonyl-4^6-methoxy-4^4-(4-methylpiperazin-1-yl) piperidin-1-yl)-1^1H,5^1H-9-oxa-3-aza-1(3,6)-indole-2(4,2)-pyrimidine-5(4,1)-pyrazolol-4(1,3)-benzenacyclononaphane] |

Second part, the compound before the results:

| Compound | IC50 (EGFR^WT) [nM] | IC50 (EGFR^L858R/T790M/C797S) [nM] | IC50 (EGFR^19del/T790M/C797S) [nM] | IC50 (BaF3 parent cell) [nM] | GI50 [1] [nM] | GI50 [2] [nM] | IC50 [3] [nM] | Cmax ([4]; IV 1 mg/kg) [ng/mL] | clearance ([4]; IV 1 mg/kg) [mL/min/kg] | half-life ([4]; IV 1 mg/kg) [h] | Cmax ([4]; PO 5 mg/kg) [ng/mL] | half-life ([4]; PO 5 mg/kg) [h] | bioavailability ([4]; PO 5 mg/kg, read-out: F (oral bioavailability)) [%] |
| --- | --- | --- | --- | --- | --- | --- | --- | --- | --- | --- | --- | --- | --- |
| CCS(=O)(=O)n1cc2c3ccc(cc31)OCCCn1cc(cn1)-c1cc(c(C)cc1N1CCOCC1)Nc1nccc-2n1 [HC950M, (Z)-1^1-Ethylsulfonyl-4^6-methyl-4^4-morpholino-1^1H,5^1H-9-oxa-3-aza-1 (3,6)-indole-2(4,2)-pyrimidine-5(4,1) pyrazol-4(1,3)-benzenacyclononaphane] | 37.6 | 1.9 | 7.3 | 445 | 86 | 108 | 149 | – | – | – | – | – | – |
| CCS(=O)(=O)n1cc2c3ccc(cc31)OCCCCn1cc(cn1)-c1cc(ccc1N1CCOCC1)Nc1ncc(Cl)c-2n1 [HC8714, 2^5-Chloro-1^1-Ethylsulfonyl-4^4-morpholino-1^1H,5^1H-10-oxa-3-aza-1(3,6)-Indole-2(4,2)-Pyrimidin-5(4,1)-Pyrazol-4(1,3)-Phenyldecane] | 802 | 9.3 | 2.7 | 274 | 91 | 75 | 155 | – | – | – | – | – | – |
| Cc1cc(N2CCOCC2)c2cc1Nc1ncc(Cl)c(n1)-c1c[nH]c3cc(ccc13)OCCCn1cc-2cn1 [HC8990, 2^5-Chloro-4^6-Methyl-4^4-morpholino-1^1H,5^1H-9-oxa-3-aza-1(3,6)-Indole-2(4,2)-Pyrimidin-5(4,1)Pyrazol-4(1,3)-benzenacyclononaphane] | 342 | 1 | 3.4 | 3290 | 429 | 325 | 531 | – | – | – | – | – | – |
| CCS(=O)(=O)n1cc2c3ccc(cc31)OCCCn1cc(cn1)-c1cc(c(C)cc1N1CCN(C)CC1)Nc1ncc(Cl)c-2n1 [HC9452, 2^5-chloro-1^1-ethylsulfonyl-4^6-methyl-4^4-(4-methylpiperazin-1-yl)-1^1H,5^1H-9-oxa-3-aza-1(3,6)-indole-2(4,2)-pyrimidine-5(4,1)-pyrazole-4(1,3)-benzenacyclononaphane] | 44.7 | 4.3 | 4.3 | 1790 | 472 | 591 | 81 | – | – | – | – | – | – |
